Experiment: Dynamic Laser Light Scattering (DLLS) analysis of supramolecular aggregation
Type: physicochemical
Procedure: Dynamic Laser Light Scattering (DLLS) was carried out on a Zetasizer Nano S from Malvern Instruments. DLLS is used for measuring the size of the microemulsion oil droplets or size of the supramolecular aggregates (% distribution function modality). Further characterization of supramolecular aggregation is given by the correlation coefficient function modality analysis of the Dynamic Laser Light Scattering.
In order to monitor the level of molecular aggregation in solution, Dynamic Laser Light Scattering (DLLS) has been used. Using this technique, it is not necessary to dilute the sample.

Aggregation by DLLS (correlation coefficient function) (50 μg/ml in water): presence of aggregates
SMILES: CC(=O)O[C@@]12CO[C@@H]1C[C@H](O)[C@@]1(C)C(=O)[C@H](O)C3=C(C)[C@@H](OC(=O)[C@H](O)[C@@H](NC(=O)OC(C)(C)C)c4ccccc4)C[C@@](O)([C@@H](OC(=O)c4ccccc4)[C@H]21)C3(C)C [docetaxel]
Aggregation by DLLS (correlation coefficient function) (50 μg/ml in water plus triacetin 10 mg/ml): greatly reduces supramolecular aggregation | Aggregation by DLLS (correlation coefficient function) (50 μg/ml in water plus triacetin 30 mg/ml): totally eliminates the presence of molecular aggregates

Source: US9468602B2, “Pharmaceutical microemulsion for preventing supramolecular aggregation of amphiphilic molecules” (AZAD Pharma AG, priority 2009, dated 2016)
